Values after ≈ are worked out from the molar mass of the structure shown.
Tests used:
Assay type in all cases: cell-based
[1] = test system: Mycobacterium tuberculosis H37Rv; test: Microplate Alamar Blue assay (MABA) MIC, M. tuberculosis; settings: read-out: MIC Mycobacterium tuberculosis H37Rv
Source text: (§1) Minimal inhibitory concentrations (MICs) in Mycobacterium tuberculosis H37Rv and Mycobacterium avium ATCC 25291 were quantified using microplate Alamar Blue assays as described (MABA; [Collins, L. & Franzblau, S. (1997) Microplate Alamar Blue assay versus BACTEC 460 system for high-throughput screening of compounds against Mycobacterium tuberculosis and Mycobacterium avium. Antimicrob. Agents Chemother. 41, 1004-1009]).

[2] = test system: Mycobacterium avium ATCC 25291; test: Microplate Alamar Blue assay (MABA) MIC, M. avium; settings: ATCC25291, M. avium ATCC 25291
Source text: as §1

[3] = test system: Mycobacterium smegmatis ATCC 19420; test: Broth microdilution MIC, M. smegmatis; settings: Mycolicibacterium smegmatis, ATCC19420, M. smegmatis ATCC 19420; read-out: MIC Mycobacterium smegmatis ATCC 19420
Source text: MICs in Mycobacterium smegmatis ATCC 19420 and Mycobacterium smegmatis ATCC 19420 derivatives were quantified using broth microdilution assays as described [Clinical and Laboratory Standards Institute (CLSI/NCCLS) (2009) Methods for Dilution Antimicrobial Susceptibility Tests for Bacteria That Grow Aerobically; Approved Standard, Eighth Edition. CLIS Document M07-A8 (CLIS, Wayne Pa.)].

[4] = test system: Vero E6 ATCC CRL1586 cells; test: Mammalian-cell cytotoxicity, minimal cytotoxic concentration (CellTiter96)
Protocol: Minimal cytotoxic concentrations (MCCs) against mammalian cells in culture were determined using Vero E6 ATCC CRL1586 cells and the CellTiter96 assay kit (Promega, Inc.). […]

O=C(NC(Cc1ccccc1)C(=O)Nc1cccc2cc[nH]c12)c1ccccc1F (stereo not drawn) [IX-96, N-(1-((1H-indol-7-yl)amino)-1-oxo-3-phenylpropan-2-yl)-2-fluorobenzamide]
MIC [1]: 12.5 µg/mL (≈ 31.1 µM) | MIC [2]: 25 µg/mL (≈ 62.3 µM) | MIC [3]: 0.78 µg/mL (≈ 1.94 µM) | MCC mammalian cells Vero E6 ATCC CRL1586 [4]: 44 µg/mL

Cc1ccccc1C(=O)NC(Cc1ccccc1)C(=O)Nc1cccc2cc[nH]c12 (stereo not drawn) [IX-97, N-(1-((1H-indol-7-yl)amino)-1-oxo-3-phenylpropan-2-yl)-2-methylbenzamide]
MIC [1]: 6.25 µg/mL (≈ 15.7 µM) | MIC [2]: 12.5 µg/mL (≈ 31.4 µM) | MIC [3]: 0.39 µg/mL (≈ 0.981 µM) | MCC mammalian cells Vero E6 ATCC CRL1586 [4]: 15 µg/mL

O=C(NC(Cc1ccccc1)C(=O)Nc1cccc2c1OCO2)c1cccs1 (stereo not drawn) [IX-98, N-(1-(benzo[d][1,3]dioxol-4-ylamino)-1-oxo-3-phenylpropan-2-yl)thiophene-2-carboxamide]
MIC [1]: 6.25 µg/mL (≈ 15.8 µM) | MIC [2]: 3.12 µg/mL (≈ 7.92 µM) | MIC [3]: 0.195 µg/mL (≈ 0.494 µM) | MCC mammalian cells Vero E6 ATCC CRL1586 [4]: 13 µg/mL

O=C(NC(Cc1ccccc1)C(=O)Nc1cccc2c1OCO2)c1ccccc1F (stereo not drawn) [IX-99, N-(1-(benzo[d][1,3]dioxol-4-ylamino)-1-oxo-3-phenylpropan-2-yl)-2-fluorobenzamide]
MIC [1]: 3.12 µg/mL (≈ 7.69 µM) | MIC [2]: 6.25 µg/mL (≈ 15.4 µM) | MIC [3]: 0.195 µg/mL (≈ 0.48 µM) | MCC mammalian cells Vero E6 ATCC CRL1586 [4]: >100 µg/mL

O=C(NC(Cc1ccccc1)C(=O)Nc1ccccc1OC(F)F)c1cccs1 (stereo not drawn) [IX-100, N-(1-((2-(difluoromethoxy)phenyl)amino)-1-oxo-3-phenylpropan-2-yl)thiophene-2-carboxamide]
MIC [1]: 6.25 µg/mL (≈ 15 µM) | MIC [2]: 6.25 µg/mL (≈ 15 µM) | MIC [3]: 0.39 µg/mL (≈ 0.936 µM) | MCC mammalian cells Vero E6 ATCC CRL1586 [4]: 42 µg/mL

O=C(NC(Cc1ccccc1)C(=O)Nc1ccccc1OC(F)F)c1ccccc1F (stereo not drawn) [IX-101, N-(1-((2-(difluoromethoxy)phenyl)amino)-1-oxo-3-phenylpropan-2-yl)-2-fluorobenzamide]
MIC [1]: 6.25 µg/mL (≈ 14.6 µM) | MIC [2]: 6.25 µg/mL (≈ 14.6 µM) | MIC [3]: 0.39 µg/mL (≈ 0.91 µM) | MCC mammalian cells Vero E6 ATCC CRL1586 [4]: >100 µg/mL

Cc1ccc(Br)cc1NC(=O)C(Cc1ccc(O)cc1)NC(=O)c1ccccc1 (stereo not drawn) [IX-103, N-(1-((5-bromo-2-methylphenyl)amino)-3-(4-hydroxyphenyl)-1-oxopropan-2-yl)benzamide]
MIC [1]: 12.5 µg/mL (≈ 27.6 µM) | MIC [2]: 12.5 µg/mL (≈ 27.6 µM) | MIC [3]: 0.78 µg/mL (≈ 1.72 µM) | MCC mammalian cells Vero E6 ATCC CRL1586 [4]: 62 µg/mL

O=C(NC(Cc1ccccc1)C(=O)Nc1cccc2[nH]ccc12)c1cccs1 (stereo not drawn) [IX-104, N-(1-((1H-indol-4-yl)amino)-1-oxo-3-phenylpropan-2-yl)thiophene-2-carboxamide]
MIC [1]: 25 µg/mL (≈ 64.2 µM) | MIC [2]: 50 µg/mL (≈ 128 µM) | MIC [3]: 0.39 µg/mL (≈ 1 µM) | MCC mammalian cells Vero E6 ATCC CRL1586 [4]: 33 µg/mL

O=C(NC(Cc1ccccc1)C(=O)Nc1ccccc1N1CCCC1)c1cccs1 (stereo not drawn) [IX-105, N-(1-oxo-3-phenyl-1-((2-(pyrrolidin-1-yl)phenyl)amino)propan-2-yl)thiophene-2-carboxamide]
MIC [1]: 6.25 µg/mL (≈ 14.9 µM) | MIC [2]: 25 µg/mL (≈ 59.6 µM) | MIC [3]: 0.78 µg/mL (≈ 1.86 µM) | MCC mammalian cells Vero E6 ATCC CRL1586 [4]: >100 µg/mL

COc1cccc(NC(=O)C(Cc2ccccc2)NC(=O)c2cccs2)c1C (stereo not drawn) [IX-107, N-(1-((3-methoxy-2-methylphenyl)amino)-1-oxo-3-phenylpropan-2-yl)thiophene-2-carboxamide]
MIC [1]: > 50 µg/mL | MIC [2]: 50 µg/mL (≈ 127 µM) | MIC [3]: 0.78 µg/mL (≈ 1.98 µM) | MCC mammalian cells Vero E6 ATCC CRL1586 [4]: >100 µg/mL

COc1cccc(NC(=O)C(Cc2ccccc2)NC(=O)c2ccccc2F)c1C (stereo not drawn) [IX-108, 2-fluoro-N-(1-((3-methoxy-2-methylphenyl)amino)-1-oxo-3-phenylpropan-2-yl)benzamide]
MIC [1]: 12.5 µg/mL (≈ 30.8 µM) | MIC [2]: 25 µg/mL (≈ 61.5 µM) | MIC [3]: 0.78 µg/mL (≈ 1.92 µM) | MCC mammalian cells Vero E6 ATCC CRL1586 [4]: 80 µg/mL

Cc1ccccc1C(=O)NC(Cc1ccccc1)C(=O)Nc1cc(F)ccc1OCF (stereo not drawn) [IX-111, N-(1-((5-fluoro-2-(fluoromethoxy)phenyl)amino)-1-oxo-3-phenyl-propan-2-yl)-2-methylbenzamide]
MIC [1]: 0.39 µg/mL (≈ 0.919 µM) | MIC [2]: 0.78 µg/mL (≈ 1.84 µM) | MIC [3]: 0.39 µg/mL (≈ 0.919 µM) | MCC mammalian cells Vero E6 ATCC CRL1586 [4]: 100 µg/mL

O=C(NC(Cc1ccccc1)C(=O)Nc1ccccc1OC(F)F)c1ccccc1Cl (stereo not drawn) [IX-119, 2-chloro-N-(1-((2-(difluoromethoxy)phenyl)amino)-1-oxo-3-phenylpropan-2-yl)benzamide]
MIC [1]: 3.12 µg/mL (≈ 7.02 µM) | MIC [2]: 12.5 µg/mL (≈ 28.1 µM) | MIC [3]: 0.39 µg/mL (≈ 0.877 µM) | MCC mammalian cells Vero E6 ATCC CRL1586 [4]: 5.6 µg/mL

Cc1ccccc1C(=O)NC(Cc1ccccc1)C(=O)Nc1ccccc1OC(F)F (stereo not drawn) [IX-120, N-(1-((2-(difluoromethoxy)phenyl)amino)-1-oxo-3-phenylpropan-2-yl)-2-methylbenzamide]
MIC [1]: 3.12 µg/mL (≈ 7.36 µM) | MIC [2]: 3.12 µg/mL (≈ 7.36 µM) | MIC [3]: 0.19 µg/mL (≈ 0.448 µM) | MCC mammalian cells Vero E6 ATCC CRL1586 [4]: >100 µg/mL

O=C(NC(Cc1ccccc1)C(=O)Nc1cccc2c1OC(F)(F)O2)c1ccccc1F (stereo not drawn) [IX-122, N-(1-((2,2-difluorobenzo[d][1,3]dioxol-4-yl)amino)-1-oxo-3-phenyl-propan-2-yl)-2-fluorobenzamide]
MIC [1]: > 50 µg/mL | MIC [2]: > 50 µg/mL | MIC [3]: 1.56 µg/mL (≈ 3.53 µM) | MCC mammalian cells Vero E6 ATCC CRL1586 [4]: 94 µg/mL

O=C(NC(Cc1ccccc1)C(=O)Nc1cccc2c1OC(F)(F)O2)c1cccs1 (stereo not drawn) [IX-124, N-(1-((2,2-difluorobenzo[d][1,3]dioxol-4-yl)amino)-1-oxo-3-phenyl-propan-2-yl)thiophene-2-carboxamide]
MIC [1]: > 50 µg/mL | MIC [2]: > 50 µg/mL | MIC [3]: 0.78 µg/mL (≈ 1.81 µM) | MCC mammalian cells Vero E6 ATCC CRL1586 [4]: 38 µg/mL

O=C(NC(Cc1ccccc1)C(=O)Nc1cccc2[nH]ncc12)c1ccccc1F (stereo not drawn) [IX-128, N-(1-((1H-indazol-4-yl)amino)-1-oxo-3-phenylpropan-2-yl)-2-fluorobenzamide]
MIC [1]: 12.5 µg/mL (≈ 31.1 µM) | MIC [2]: 25 µg/mL (≈ 62.1 µM) | MIC [3]: 0.39 µg/mL (≈ 0.969 µM) | MCC mammalian cells Vero E6 ATCC CRL1586 [4]: 58 µg/mL

O=C(NC(Cc1ccccc1)C(=O)Nc1ccccc1N1CCSCC1)c1ccccc1 (stereo not drawn) [IX-149, N-(1-oxo-3-phenyl-1-((2-thiomorpholinophenyl)amino)propan-2-yl)-benzamide]
MIC [1]: 3.12 µg/mL (≈ 7.01 µM) | MIC [2]: > 50 µg/mL | MIC [3]: 0.095 µg/mL (≈ 0.213 µM) | MCC mammalian cells Vero E6 ATCC CRL1586 [4]: >100 µg/mL

O=C(NC(Cc1ccccc1)C(=O)Nc1ccccc1N1CCNCC1)c1ccccc1 (stereo not drawn) [IX-150, N-(1-oxo-3-phenyl-1-((2-(piperazin-1-yl)phenyl)amino)propan-2-yl)-benzamide]
MIC [1]: 6.25 µg/mL (≈ 14.6 µM) | MIC [2]: 3.12 µg/mL (≈ 7.29 µM) | MIC [3]: 0.39 µg/mL (≈ 0.91 µM) | MCC mammalian cells Vero E6 ATCC CRL1586 [4]: 38 µg/mL

CN1CCN(c2ccccc2NC(=O)C(Cc2ccccc2)NC(=O)c2ccccc2)CC1 (stereo not drawn) [IX-151, N-(1-((2-(4-methylpiperazin-1-yl)phenyl)amino)-1-oxo-3-phenyl-propan-2-yl)benzamide]
MIC [1]: 12.5 µg/mL (≈ 28.2 µM) | MIC [2]: 12.5 µg/mL (≈ 28.2 µM) | MIC [3]: 0.78 µg/mL (≈ 1.76 µM) | MCC mammalian cells Vero E6 ATCC CRL1586 [4]: 35 µg/mL

O=C(NC(Cc1ccccc1)C(=O)Nc1ccccc1N1CCOCC1)c1ccccc1F (stereo not drawn) [IX-152, 2-fluoro-N-(1-((2-morpholinophenyl)amino)-1-oxo-3-phenylpropan-2-yl)benzamide]
MIC [1]: 1.56 µg/mL (≈ 3.49 µM) | MIC [2]: 3.12 µg/mL (≈ 6.98 µM) | MIC [3]: 0.073 µg/mL (≈ 0.163 µM) | MCC mammalian cells Vero E6 ATCC CRL1586 [4]: 90 µg/mL

Cc1ccccc1C(=O)NC(Cc1ccccc1)C(=O)Nc1ccccc1N1CCOCC1 (stereo not drawn) [IX-153, 2-methyl-N-(1-((2-morpholinophenyl)amino)-1-oxo-3-phenylpropan-2-yl)benzamide]
MIC [1]: 0.78 µg/mL (≈ 1.76 µM) | MIC [2]: 1.56 µg/mL (≈ 3.52 µM) | MIC [3]: 0.036 µg/mL (≈ 0.0812 µM) | MCC mammalian cells Vero E6 ATCC CRL1586 [4]: 84 µg/mL

O=C(NC(Cc1ccc(O)cc1)C(=O)Nc1ccccc1N1CCOCC1)c1ccccc1 (stereo not drawn) [IX-154, N-(3-(4-hydroxyphenyl)-1-((2-morpholinophenyl)amino)-1-oxo-propan-2-yl)benzamide]
MIC [1]: 1.56 µg/mL (≈ 3.5 µM) | MIC [2]: 1.56 µg/mL (≈ 3.5 µM) | MIC [3]: 0.095 µg/mL (≈ 0.213 µM) | MCC mammalian cells Vero E6 ATCC CRL1586 [4]: >100 µg/mL

O=C(NC(Cc1ccc(O)cc1)C(=O)Nc1ccccc1N1CCOCC1)c1ccccc1F (stereo not drawn) [IX-155, 2-fluoro-N-(3-(4-hydroxyphenyl)-1-((2-morpholinophenyl)amino)-1-oxopropan-2-yl)benzamide]
MIC [1]: 1.56 µg/mL (≈ 3.37 µM) | MIC [2]: 12.5 µg/mL (≈ 27 µM) | MIC [3]: 0.195 µg/mL (≈ 0.421 µM) | MCC mammalian cells Vero E6 ATCC CRL1586 [4]: 77 µg/mL

— patent US9919998B2, “Antibacterial agents: Nα-aroyl-N-aryl-phenylalaninamides” (priority 2014, dated 2018)
